Measurements reported in patent US10487093B2, “Heterocyclic compounds, in particular 2-oxo-4,4,5,5,6,6,7,7-octahydrobenzoxazole derivatives, and their use as antibacterial compounds” (priority 2016, dated 2019).
Values after ≈ are worked out from the molar mass of the structure shown. Read-outs that look alike come from different tables or passages of the source.

Key:
[1] = tested on: Acinetobacter baumannii NCTC 13420; test: MIC, broth microdilution (CLSI) versus planktonic bacteria; format: cell-based
[2] = tested on: Acinetobacter baumannii ATCC 19606; test: as above; format: cell-based; conditions: ATCC19606; Acinetobacter baumannii ATCC 19606; 16-20 h; mode of three independent experiments; read-out: MIC, Ab ATCC 19606
[3] = tested on: Enterobacter cloacae NCTC 13406; test: as above; format: cell-based
[4] = tested on: Escherichia coli ATCC 25922; test: as above; format: cell-based
[5] = tested on: Haemophilus influenzae ATCC 49247; test: as above; format: cell-based
[6] = tested on: Pseudomonas aeruginosa ATCC 27853; test: as above; format: cell-based
[7] = tested on: Staphylococcus aureus ATCC 29213; test: as above; format: cell-based
[8] = tested on: Streptococcus pneumoniae ATCC 49619; test: as above; format: cell-based
[9] = tested on: human hepatic cell line (HepG2 ATCC HB-8065); test: Human cell viability assay (CellTiter-Glo); conditions: Homo sapiens, HepG2, 24 h, read-out: IC50 (μg/mL) HepG2
[10] = NCTC13420, Acinetobacter baumannii NCTC 13420, 16-20 h, mode of three independent experiments, read-out: MIC, Ab NCTC 13420
[11] = NCTC13406, Enterobacter cloacae NCTC 13406, 16-20 h, mode of three independent experiments, read-out: MIC, Ecl NCTC 13406
[12] = ATCC25922, Escherichia coli ATCC 25922, 16-20 h, mode of three independent experiments, read-out: MIC, Ec ATCC 25922
[13] = ATCC49247, Haemophilus influenzae ATCC 49247, 16-20 h, mode of three independent experiments, read-out: MIC, Hi ATCC 49247
[14] = ATCC27853, Pseudomonas aeruginosa ATCC 27853, 16-20 h, mode of three independent experiments, read-out: MIC, Pa ATCC 27853
[15] = ATCC29213, Staphylococcus aureus ATCC 29213, 16-20 h, mode of three independent experiments, read-out: MIC, Sa ATCC 29213
[16] = ATCC49619, Streptococcus pneumoniae ATCC 49619, 16-20 h, mode of three independent experiments, read-out: MIC, Sp ATCC 49619
[17] = Acinetobacter baumannii, NCTC13420, read-out: MIC, Ab NCTC 13420
[18] = Enterobacter cloacae, NCTC13406, read-out: MIC, Ecl NCTC 13406
[19] = Escherichia coli, ATCC25922, read-out: MIC, Ec ATCC 25922
[20] = Haemophilus influenzae, ATCC49247, read-out: MIC, Hi ATCC 49247
[21] = Pseudomonas aeruginosa, ATCC27853, read-out: MIC, Pa ATCC 27853
[22] = Staphylococcus aureus, ATCC29213, read-out: MIC, Sa ATCC 29213
[23] = Streptococcus pneumoniae, ATCC49619, read-out: MIC, Sp ATCC 49619

Row | SMILES | MIC [1, 10] [µg/mL] | MIC [2] [µg/mL] | MIC [3, 11] [µg/mL] | MIC [4, 12] [µg/mL] | MIC [5, 13] [µg/mL] | MIC [6, 14] [µg/mL] | MIC [7, 15] [µg/mL] | MIC [8, 16] [µg/mL] | IC50 [9] [µg/mL] | MIC [1, 17] [µg/mL] | MIC [3, 18] [µg/mL] | MIC [4, 19] [µg/mL] | MIC [5, 20] [µg/mL] | MIC [6, 21] [µg/mL] | MIC [7, 22] [µg/mL] | MIC [8, 23] [µg/mL]
1 | COC(=O)c1ccc2ccc(=O)n(CCN[C@@H]3CC[C@@H]4[C@@H](C3)OC(=O)N4c3ccc4c(n3)NC(=O)CO4)c2c1 [Compound 36, methyl 1-(2-{[(3aR,6R,7aR)-2-oxo-3-{3-oxo-2H,3H,4H-pyrido[3,2-b][1,4]oxazin-6-yl}-octahydro-1,3-benzoxazol-6-yl]amino}ethyl)-2-oxo-1,2-dihydroquinoline-7-carboxylate] | < 1 | < 1 | < 1 | < 1 | < 1 | 1 to 10 (≈ 1.87 to 18.7 µM) | < 1 | < 1 | 10 to 100 (≈ 18.7 to 187 µM) | – | – | – | – | – | – | –
2 | N#Cc1ccc2ccc(=O)n(CCN[C@@H]3CC[C@@H]4[C@@H](C3)OC(=O)N4c3ncc4c(n3)NC(=O)CO4)c2c1 [Compound 37, 1-(2-{[(3aR,6R,7aR)-2-oxo-3-{7-oxo-6H,7H,8H-pyrimido[5,4-b][1,4]oxazin-2-yl}-octahydro-1,3-benzoxazol-6-yl]amino}ethyl)-2-oxo-1,2-dihydroquinoline-7-carbonitrile] | 1 to 10 (≈ 1.99 to 19.9 µM) | 1 to 10 (≈ 1.99 to 19.9 µM) | < 1 | < 1 | < 1 | 1 to 10 (≈ 1.99 to 19.9 µM) | < 1 | < 1 | > 100 | – | – | – | – | – | – | –
3 | COc1ccc2ccc(=O)n(CCN[C@H]3CC[C@H]4[C@H](C3)OC(=O)N4c3ccc4c(n3)NC(=O)C(C)(C)O4)c2n1 [Compound 48, 1-(2-{[(3aS,6S,7aS)-3-{2,2-dimethyl-3-oxo-2H,3H,4H-pyrido[3,2-b][1,4]oxazin-6-yl}-2-oxo-octahydro-1,3-benzoxazol-6-yl]amino}ethyl)-7-methoxy-1,2-dihydro-1,8-naphthyridin-2-one] | < 1 | – | 10 to 100 (≈ 18.7 to 187 µM) | 1 to 10 (≈ 1.87 to 18.7 µM) | 1 to 10 (≈ 1.87 to 18.7 µM) | 10 to 100 (≈ 18.7 to 187 µM) | < 1 | < 1 | > 100 | – | – | – | – | – | – | –
4 | COc1ccc2ccc(=O)n(CCN[C@@H]3CC[C@@H]4[C@@H](C3)OC(=O)N4c3cc4c(nn3)OCCO4)c2n1 [Compound 49, 1-(2-{[(3aR,6R,7aR)-3-{6H,7H-[1,4]dioxino[2,3-c]pyridazin-3-yl}-2-oxo-octahydro-1,3-benzoxazol-6-yl]amino}ethyl)-7-methoxy-1,2-dihydro-1,8-naphthyridin-2-one] | 10 to 100 (≈ 20.2 to 202 µM) | – | > 100 | 10 to 100 (≈ 20.2 to 202 µM) | 10 to 100 (≈ 20.2 to 202 µM) | 10 to 100 (≈ 20.2 to 202 µM) | < 1 | < 1 | > 100 | – | – | – | – | – | – | –
5 | N#Cc1cnc2ccc(=O)n(CCN[C@@H]3CC[C@@H]4[C@@H](C3)OC(=O)N4c3ccc4c(n3)NC(=O)CO4)c2c1 [Compound 50, 5-(2-{[(3aR,6R,7aR)-2-oxo-3-{3-oxo-2H,3H,4H-pyrido[3,2-b][1,4]oxazin-6-yl}-octahydro-1,3-benzoxazol-6-yl]amino}ethyl)-6-oxo-5,6-dihydro-1,5-naphthyridine-3-carbonitrile] | 1 to 10 (≈ 1.99 to 19.9 µM) | – | 1 to 10 (≈ 1.99 to 19.9 µM) | < 1 | < 1 | < 1 | < 1 | < 1 | > 100 | – | – | – | – | – | – | –
6 | COc1cnc2ccc(=O)n(CCN(C)[C@H]3CC[C@H]4[C@@H](C3)OC(=O)N4c3ccc4c(n3)NC(=O)CO4)c2c1 [Compound 51, 1-(2-{[(3aS,6S,7aR)-2-oxo-3-{3-oxo-2H,3H,4H-pyrido[3,2-b][1,4]oxazin-6-yl}-octahydro-1,3-benzoxazol-6-yl](methyl)amino}ethyl)-7-methoxy-1,2-dihydro-1,5-naphthyridin-2-one] | 1 to 10 (≈ 1.92 to 19.2 µM) | – | 1 to 10 (≈ 1.92 to 19.2 µM) | 1 to 10 (≈ 1.92 to 19.2 µM) | < 1 | 1 to 10 (≈ 1.92 to 19.2 µM) | < 1 | < 1 | > 100 | – | – | – | – | – | – | –
7 | CSc1ncc2ccc(=O)n(CCN[C@H]3CC[C@H]4[C@@H](C3)OC(=O)N4c3ccc4c(n3)NC(=O)CO4)c2n1 [Compound 53, (3aS,6S,7aR)-6-({2-[2-(methylsulfanyl)-7-oxo-7H,8H-pyrido[2,3-d]pyrimidin-8-yl]ethyl}amino)-3-{3-oxo-2H,3H,4H-pyrido[3,2-b][1,4]oxazin-6-yl}-octahydro-1,3-benzoxazol-2-one] | 1 to 10 (≈ 1.91 to 19.1 µM) | – | 10 to 100 (≈ 19.1 to 191 µM) | 1 to 10 (≈ 1.91 to 19.1 µM) | 1 to 10 (≈ 1.91 to 19.1 µM) | 10 to 100 (≈ 19.1 to 191 µM) | < 1 | 1 to 10 (≈ 1.91 to 19.1 µM) | > 100 | – | – | – | – | – | – | –
8 | CN(CCn1c(=O)ccc2ccc(OCCN)cc21)[C@@H]1CC[C@@H]2[C@@H](C1)OC(=O)N2c1ccc2c(n1)NC(=O)CO2 [Compound 54] | 1 to 10 (≈ 1.82 to 18.2 µM) | – | 1 to 10 (≈ 1.82 to 18.2 µM) | < 1 | 1 to 10 (≈ 1.82 to 18.2 µM) | 1 to 10 (≈ 1.82 to 18.2 µM) | < 1 | < 1 | > 100 | – | – | – | – | – | – | –
9 | O=C1COc2cnc(N3C(=O)O[C@@H]4C[C@@H](NCCn5c(=O)cnc6cc(F)c(F)cc65)CC[C@@H]43)nc2N1 [Compound 65, 1-(2-{[(3aS,6S,7aR)-2-oxo-3-{7-oxo-6H,7H,8H-pyrimido[5,4-b][1,4]oxazin-2-yl}-octahydro-1,3-benzoxazol-6-yl]amino}ethyl)-6,7-difluoro-1,2-dihydroquinoxalin-2-one] | 10 to 100 (≈ 19.5 to 195 µM) | – | 1 to 10 (≈ 1.95 to 19.5 µM) | 1 to 10 (≈ 1.95 to 19.5 µM) | 1 to 10 (≈ 1.95 to 19.5 µM) | 10 to 100 (≈ 19.5 to 195 µM) | < 1 | < 1 | > 100 | – | – | – | – | – | – | –
10 | O=C1COc2cnc(N3C(=O)O[C@H]4C[C@@H](NCCn5c(=O)cnc6cc(F)c(F)cc65)CC[C@@H]43)nc2N1 [Compound 66, 1-(2-{[(3aS,6S,7aS)-2-oxo-3-{7-oxo-6H,7H,8H-pyrimido[5,4-b][1,4]oxazin-2-yl}-octahydro-1,3-benzoxazol-6-yl]amino}ethyl)-6,7-difluoro-1,2-dihydroquinoxalin-2-one] | 1 to 10 (≈ 1.95 to 19.5 µM) | – | 10 to 100 (≈ 19.5 to 195 µM) | 1 to 10 (≈ 1.95 to 19.5 µM) | 1 to 10 (≈ 1.95 to 19.5 µM) | > 100 | < 1 | < 1 | > 100 | – | – | – | – | – | – | –
11 | N#Cc1ccc(-c2cccc(CN[C@H]3CC[C@H]4[C@H](C3)OC(=O)N4c3ccc4c(n3)NC(=O)CO4)c2)nc1 [Compound 71, 6-[3-({[(3aS,6S,7aS)-2-oxo-3-{3-oxo-2H,3H,4H-pyrido[3,2-b][1,4]oxazin-6-yl}-octahydro-1,3-benzoxazol-6-yl]amino}methyl)phenyl]pyridine-3-carbonitrile] | 1 to 10 (≈ 2.01 to 20.1 µM) | – | 1 to 10 (≈ 2.01 to 20.1 µM) | < 1 | 1 to 10 (≈ 2.01 to 20.1 µM) | 10 to 100 (≈ 20.1 to 201 µM) | < 1 | 1 to 10 (≈ 2.01 to 20.1 µM) | 10 to 100 (≈ 20.1 to 201 µM) | – | – | – | – | – | – | –
12 | NCCOc1ccc2ccc(=O)n(CCN[C@H]3CC[C@H]4[C@H](C3)OC(=O)N4c3ccc4c(n3)NC(=O)CO4)c2c1 [Compound 75, (3aS,6S,7aS)—N-{2-[7-(2-azaniumylethoxy)-2-oxo-1,2-dihydroquinolin-1-yl]ethyl}-2-oxo-3-{3-oxo-2H,3H,4H-pyrido[3,2-b][1,4]oxazin-6-yl}-octahydro-1,3-benzoxazol-6-aminium dichloride] | – | – | – | – | – | – | – | – | > 100 | > 100 | 1 to 10 | < 1 | 10 to 100 | 1 to 10 | 1 to 10 | < 1
13 | COc1ccc2ccc(=O)n(CCN(C(=O)CN)[C@H]3CC[C@H]4[C@H](C3)OC(=O)N4c3ccc4c(n3)NC(=O)CO4)c2n1 [Compound 78, {[(3aS,6S,7aS)-2-oxo-3-{3-oxo-2H,3H,4H-pyrido[3,2-b][1,4]oxazin-6-yl}-octahydro-1,3-benzoxazol-6-yl][2-(7-methoxy-2-oxo-1,2-dihydro-1,8-naphthyridin-1-yl)ethyl]carbamoyl}methanaminium chloride] | – | – | – | – | – | – | – | – | > 100 | 10 to 100 | > 100 | 1 to 10 | 10 to 100 | 1 to 10 | < 1 | < 1
14 | Cn1ccc(-c2ccc3ccc(=O)n(CCN[C@H]4CC[C@H]5[C@H](C4)OC(=O)N5c4ccc5c(n4)NC(=O)CO5)c3c2)n1 [Compound 104, 1-(2-{[(3aS,6S,7aS)-2-oxo-3-{3-oxo-2H,3H,4H-pyrido[3,2-b][1,4]oxazin-6-yl}-octahydro-1,3-benzoxazol-6-yl]amino}ethyl)-7-(1-methyl-1H-pyrazol-3-yl)-1,2-dihydroquinolin-2-one] | < 1 | – | 1 to 10 (≈ 1.8 to 18 µM) | 1 to 10 (≈ 1.8 to 18 µM) | < 1 | 10 to 100 (≈ 18 to 180 µM) | < 1 | < 1 | 10 to 100 (≈ 18 to 180 µM) | – | – | – | – | – | – | –
